Here are results for one compound from US20160073633A1, “CROP ENHANCEMENT” (SYNGENTA PARTICIPATIONS AG, priority 2013, published 2016).

“Also recorded” adds a separate entry of the source.

The test system of assay [1] is potato tubers. As to the kind of experiment: Experiment 1.2: azoxystrobin sprayed on uncovered pre-germinated potato tubers at about 10° C. (simulated cold stress), plant growth vs check. Type of assay: in vivo. Conditions: 3 g/ha; for % increased growth vs Check (visual plant growth): pre-germinated, 21 days after application. On the procedure: A commercially available SC100 formulation of azoxystrobin was sprayed directly to uncovered potato tubers, which were sitting on soil (50% drench soil mixed with 50% sand), at: • 3 g/ha
(§1) The spray volume was 200 l/ha.
(§2) The check had no treatment of azoxystrobin.
(§3) The trials were repeated in 6 troughs with 3 tubers each.
Varieties tested were Allians, Belana, Marabel and Roberta. Each were tested as pre-germinated (i.e. treatment was applied when the potato tuber had 2-3 mm long sprouts) tubers.
The temperature was held at about 10° C. during the day and night to simulate cold stress.
(§4) No pest pressure present.
Visual Plant Growth was Measured 21 Days after Application: […]

The subject of assay [2] is potato tubers. As to the kind of experiment: Experiment 1.1: azoxystrobin sprayed on uncovered potato tubers, no cold stress, plant growth vs check. The assay is classed as in vivo. On the procedure:
A commercially available SC100 formulation of azoxystrobin was sprayed directly to uncovered potato tubers, which were sitting on soil (50% drench soil mixed with 50% sand), at two different rates: • 7.5 g/ha • 3.8 g/ha
as §1, §2, §3
Varieties tested were Allians, Belana, Marabel and Roberta. Each were tested as pre-germinated (i.e. treatment was applied when the potato tuber had 2-3 mm long sprouts) tubers and as non germinated tubers.
The temperature was about 17° C. during the day and about 15° C. during the night.
as §4
Plant vitality was measured with the “Green Seeker” system.

Setting [3] is: 21 and 34 days after application.

On to `CO/C=C(/C(=O)OC)c1ccccc1Oc1cc(Oc2ccccc2C#N)ncn1` [azoxystrobin], for which, in assay [1] (setting [3]), the “Number of shoots in comparison with the check” value is reported as “increased number of shoots”. The “Shoot length in comparison with the check” value in assay [1] (setting [3]) is given as “increased shoot length”. The “Visually more shoot than check” value in assay [1] (across varieties) is “up to 38%”. Also, the “Growth of treated tubers vs untreated check” value in assay [1] (all varieties) is “grew better than untreated check”. Besides, the “% increased growth vs Check (visual plant growth)” value was 38% in assay [1] (variety Allians), 12% in assay [1] (variety Belana), 37% in assay [1] (variety Marabel) and 10% in assay [1] (variety Roberta). Further, the “Shoot number in comparison with the check” value in assay [2] (7.5 g/ha and 3.8 g/ha, spray 200 l/ha, about 17° C. day/15° C. night, Allians, Belana, Marabel, Roberta, pre-germinated and non germinated tubers) was “increased number of shoots”. Moreover, the “Shoot fresh mass in comparison with the check” value in assay [2] (7.5 g/ha and 3.8 g/ha, spray 200 l/ha, about 17° C. day/15° C. night, all varieties) is on record as “increased shoot fresh mass; also recorded: significantly increased”. The “Plant vitality (Green Seeker) vs check” value was “better than check” in assay [2] (Allians and Roberta, pre-germinated tubers, about 17° C. day/15° C. night); “often showed a lower value” in assay [2] (low rate treatment (3.8 g/ha), about 17° C. day/15° C. night). For the same compound, in assay [2] (each trial, 7.5 g/ha and 3.8 g/ha), the “Plant vitality (Green Seeker) in comparison with the check, FIG. 3” value was “increased plant vitality”.
